The compounds below were run against hROMK (human Kir1.1) (Homo sapiens (Human), UniProt P48048) (assay: cell-based). Settings: CHO T-Rex hROMK stable cell line; thallium flux; 10-point concentration response curve; read-out: Human ROMK Th Flux IC50.
Chain of hROMK (human Kir1.1) (P48048 whole entry): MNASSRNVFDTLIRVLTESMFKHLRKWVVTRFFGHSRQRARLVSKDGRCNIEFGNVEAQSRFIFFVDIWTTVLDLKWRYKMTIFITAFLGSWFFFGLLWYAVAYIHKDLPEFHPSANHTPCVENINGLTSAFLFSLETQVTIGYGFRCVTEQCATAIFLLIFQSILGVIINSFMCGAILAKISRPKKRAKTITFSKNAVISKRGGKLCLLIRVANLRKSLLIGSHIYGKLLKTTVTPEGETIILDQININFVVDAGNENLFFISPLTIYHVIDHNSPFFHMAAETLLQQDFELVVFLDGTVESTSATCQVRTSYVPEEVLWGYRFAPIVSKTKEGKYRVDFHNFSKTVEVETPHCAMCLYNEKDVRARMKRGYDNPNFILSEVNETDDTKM
Description: Solutions and reagents: Thallium flux assay was performed using FluxOR kit (F10017, Life Technologies). Loading buffer, assay buffer and stimulus buffer were prepared using kit components. HBSS (Hank's balanced salt solution, Cat#14025-092) was purchased separately from Life Technologies.
To prepare 10 ml of loading buffer: 10 μl of FluxOR dye (reconstituted in DMSO) was first added to 100 μl of powerload concentrate and this mix along with 100 μl of Probenicid (100×) was then added to 9.79 ml of HBSS. Assay buffer (10 ml) was prepared by addition of 2 ml of FluxOR chloride free buffer (5×), 100 μl of Probenicid (100×), and 0.2 ml of Ouabain (13.77 mM) to 7.7 ml of deionized water. Stimulus buffer was composed of 15 mM Tl2SO4, 0.75 mM K2SO4 in FluxOR chloride free buffer (diluted to 1× using deionized water). The final concentration of Tl2SO4 and K2SO4 in the assay plate was 3 mM and 0.15 mM, respectively.
Plating and induction of cells: The CHO T-Rex hROMK (human Kir1.1) stable cell line was maintained in Ham's F12 media supplemented with 10% FBS, 1% Penicillin-Streptomycin, 500 μg/ml Zeocin and 10 μg/ml Blasticidin at 37° C. in a 5% CO2 incubator. One day before the experiment, the cells were dissociated by incubation with Versene solution (15040-066, Life Technologies) for 10 minutes at 37° C. followed by addition of growth media. The cell suspension was centrifuged at 1200 rpm for 5 min. After discarding the supernatant, the cells were resuspended in fresh growth media and cell concentration was determined using a hemocytometer. Next, 0.5 μg/ml of Doxycycline was added to the cell suspension to induce hROMK channel expression and 50 μl (10,000 cells/well) of cell suspension was added to each well of a poly-D lysine coated 384 well black, optically clear bottom plate (6007718, Perkin Elmer). The assay plate was kept at 37° C. in a 5% CO2 incubator.
Assay protocol: On the day of experiment, media was removed and loading buffer was added (30 μl/well) to the assay plate. The cells were incubated in the loading buffer for 30 minutes at 37° C. The loading buffer was then replaced by assay buffer (30 μl/well) followed by addition of test compounds or controls. The cells were incubated with compounds for 30 minutes and the plate was then mounted on FlexStation (Molecular Devices) for fluorescence read out with excitation and emission wavelengths at 488 and 525 nm, respectively. Each well was read for 90 sec at 2 sec interval and the stimulus buffer was added after 20 seconds of baseline recording. The final DMSO concentration was either 0.5 or 1% in the assay plate. Positive and negative controls were defined by addition of DMSO or 3 μM of a standard ROMK inhibitor, respectively, to the wells instead of a test compound.
A 10-point concentration response curve was used to estimate the IC50 value of test compounds.
`Cc1cc(-n2cc(CN3CCO[C@@H](c4ccc5c(c4C)COC5=O)C3)cn2)ncc1C#N` [Example 1-II, (S)-4-methyl-6-(4-((2-(4-methyl-1-oxo-1,3-dihydroisobenzofuran-5-yl)morpholino)methyl)-1H-pyrazol-1-yl) nicotinonitrile] showed an IC50 of 800 nM. `Cc1c([C@@H]2CN(Cc3cnn(-c4ccncc4)c3)CCO2)ccc2c1COC2=O` [Example 44-I, (R)-4-methyl-5-(4-((1-(pyridin-4-yl)-1H-pyrazol-4-yl)methyl)morpholin-2-yl)isobenzo-furan-1(3H)-one] gave an IC50 of 200 nM. With `Cc1cc(N2CCOC2=O)cc(-n2cc(CN3C[C@@H](c4ccc5c(c4C)COC5=O)N[C@@H](C)C3)cn2)c1` [Example 152-I, 3-(3-methyl-5-(4-(((3S,5R)-3-methyl-5-(4-methyl-1-oxo-1,3-dihydroisobenzofuran-5-yl)piperazin-1-yl)methyl)-1H-pyrazol-1-yl)phenyl)oxazolidin-2-one] the IC50 was 490 nM. `Cc1cc(-c2ncc(CN3C[C@@H](c4ccc5c(c4C)COC5=O)N[C@@H](C)C3)s2)ncc1C#N` [Example 113-I, 4,4-methyl-6-(5-(((3S,5R)-3-methyl-5-(4-methyl-1-oxo-1,3-dihydroisobenzofuran-5-yl)piperazin-1-yl)methyl)thiazol-2-yl)nicotinonitrile] gave an IC50 of 25 nM. `COc1cc(-n2cnc(CN3CC[C@@H](O)[C@H](c4ccc5c(c4C)COC5=O)C3)c2)ccc1C#N` [Example 162-I, 4-(4-(((3R,4R)-4-hydroxy-3-(4-methyl-1-oxo-1,3-dihydroisobenzofuran-5-yl)piperidin-1-yl)methyl)-1H-imidazol-1-yl)-2-methoxybenzonitrile] was tested, and the IC50 was 260 nM. Work on `COc1cc(-n2cnc(CN3C[C@@H](c4ccc5c(c4C)COC5=O)OC3=O)c2)ncc1C#N` [Example 78-I, (R)-4-methoxy-6-(4-((5-(4-methyl-1-oxo-1,3-dihydroisobenzofuran-5-yl)-2-oxooxazolidin-3-yl)methyl)-1H-imidazol-1-yl)nicotinonitrile] yielded an IC50 of 810 nM. In the case of `Cc1cc(-n2nnc(CN3C[C@@H](c4ccc5c(c4C)COC5=O)N[C@@H](C)C3)c2C)ncc1C#N` [Example 176-I, 4-methyl-6-(5-methyl-4-(((3S,5R)-3-methyl-5-(4-methyl-1-oxo-1,3-dihydroisobenzofuran-5-yl)piperazin-1-yl)methyl)-1H-1,2,3-triazol-1-yl)nicotinonitrile], the IC50 is reported as 120 nM. With `CNC(=O)OC1CCN(Cc2cnn(-c3cc(C)c(C#N)cn3)c2)CC1c1ccc2c(c1C)COC2=O` (single isomer, unassigned) [Example 258-I, 1-((1-(5-cyano-4-methylpyridin-2-yl)-1H-pyrazol-4-yl)methyl)-3-(4-methyl-1-oxo-1,3-dihydroisobenzofuran-5-yl)piperidin-4-yl methylcarbamate] the IC50 was 250 nM. Work on `Cc1cc(-n2cc(CN3C[C@@H](c4ccc5c(c4C)COC5=O)NC3=O)cn2)ncc1C#N` [Example 118-I, (R)-4-methyl-6-(4-((4-(4-methyl-1-oxo-1,3-dihydroisobenzofuran-5-yl)-2-oxoimidazolidin-1-yl)methyl)-1H-pyrazol-1-yl)nicotinonitrile] yielded an IC50 of 290 nM. `COc1cc(-n2cc(CN3CCN[C@H](c4ccc5c(c4C)COC5=O)C3)c(C(N)=O)n2)ncc1C#N` [Example 262-I, (R)-1-(5-cyano-4-methoxypyridin-2-yl)-4-((3-(4-methyl-1-oxo-1,3-dihydroisobenzofuran-5-yl)piperazin-1-yl)methyl)-1H-pyrazole-3-carboxamide] showed an IC50 of 120 nM. For `COc1cc(-n2cc(CN3C[C@@H](c4ccc5c(c4C)COC5=O)N[C@@H](C)C3)n(C(C)C)c2=O)ncc1C#N` [Example 172-I, 6-(3-isopropyl-4-(((3S,5R)-3-methyl-5-(4-methyl-1-oxo-1,3-dihydroisobenzofuran-5-yl)piperazin-1-yl)methyl)-2-oxo-2,3-dihydro-1H-imidazol-1-yl)-4-methoxynicotinonitrile], the IC50 was 160 nM.
